Experiment in the first data set: not given
The conditions noted are these: rat, in vivo.
In the case of `COc1cc2c(=O)c3c(O)c([C@@H]4O[C@H](CO)[C@@H](O)[C@H](O)[C@H]4O)c(O)cc3oc2cc1O` [7-O-methyl mangiferin], the “quantitative detection in sera after the treatment of BHGZD” value (“quantitative detection in sera” for short) is reported as “detected”.

Another data set is described as follows: Chemical profiling of BHGZD in sera (UFLC-Q-TOF-MS/MS). The conditions noted are these: 30 min after the treatment of BHGZD.
Source text: A rapid, sensitive, and reliable method by the UFLC-Q-TOF-MS/MS system was used to identify the chemical profiling of BHGZD as described in Supplementary Materials Section 9 ([30]). The reference standards of these compounds ( Supplementary Table S2 ) were purchased from Chengdu Must Bio-technology Co., Ltd. (Chengdu, China), the National Institute for the Control of Pharmaceutical and Biological Products (Beijing, China), and Chengdu DeSiTe Biological Technology Co., Ltd. (Chengdu, China).
Sciex, Forster City, USA) with electrospray ionization source (ESI). Kinetex C18 column
(Phenomenex, 3.0×150 mm, 2.6μm, 100Å) was used to perform chromatographic
separation with a flow rate of 0.3mL/min at 40℃. A linear gradient program with mobile
phase system including solvent A (deionized water with 0.1% formic acid, v/v) and solvent
B (methanol) was described in details: solvent B (5~95%) for 40min, isocratic eluted at
95% B for 5min，95%~5% B (40-45min), followed a post-run of 2min to equilibrate the
The instrumental settings of Q-TOF-MS/MS were described in the previous study
(9).Samples were analyzed in both positive and negative ionization modes with scanning
mas-to-charge (m/z) range from 50 to 1500. Data was collected in information-dependent
acquisition (IDA) mode and analyzed by PeakView® 2.2 software (AB Sciex, Foster City,
Chemical identifications were based on reference standards and mass spectral
library (Natural Products HR-MS/MS Spectral Library, Version 1.0, AB Sciex, Forster City,
In the case of `COc1ccc(-c2coc3cc(O)ccc3c2=O)cc1` [formononetin], the “quantitative detection in sera” value is recorded as “detected”. Same read-out and setting: with `CC1(C)[C@@H](O[C@H]2O[C@H](C(=O)O)[C@@H](O)[C@H](O)[C@H]2O[C@@H]2O[C@H](C(=O)O)[C@@H](O)[C@H](O)[C@H]2O)CC[C@]2(C)[C@H]3C(=O)C=C4[C@@H]5C[C@@](C)(C(=O)O)CC[C@]5(C)CC[C@@]4(C)[C@]3(C)CC[C@@H]12` [glycyrrhizic acid] the entry was “detected”. Still for that read-out and setting: the entry for `O=C(/C=C/c1ccc(O[C@@H]2O[C@H](CO)[C@@H](O)[C@H](O)[C@H]2O)cc1)c1ccc(O)cc1O` [isoliquiritin] is “detected”; for `O=c1cc(-c2ccc(O)cc2)oc2c([C@@H]3O[C@H](CO)[C@@H](O)[C@H](O)[C@H]3O)c(O)c([C@@H]3OC[C@H](O)[C@H](O)[C@H]3O)c(O)c12` [isoschaftoside] it is “detected”; for `O=c1cc(-c2ccc(O)cc2)oc2cc(O)c([C@@H]3O[C@H](CO)[C@@H](O)[C@H](O)[C@H]3O)c(O)c12` [isovitexin] it is “detected”.

`O=C1C[C@@H](c2ccc(O)cc2)Oc2cc(O)ccc21` [liquiritigenin]: the “quantitative detection in sera” value is given as “detected”.

On to `O=c1c2cc(O[C@@H]3O[C@H](CO)[C@@H](O)[C@H](O)[C@H]3O)c(O)cc2oc2cc(O)c([C@@H]3O[C@H](CO)[C@@H](O)[C@H](O)[C@H]3O)c(O)c12` [neomangiferin], for which the “quantitative detection in sera” value is “detected”. With `C[C@@H](CC[C@@]1(O)O[C@H]2C[C@H]3[C@@H]4CC[C@@H]5C[C@@H](O[C@@H]6O[C@H](CO)[C@H](O)[C@H](O)[C@H]6O[C@@H]6O[C@H](CO)[C@@H](O)[C@H](O)[C@H]6O)CC[C@]5(C)[C@H]4CC[C@]3(C)[C@H]2[C@@H]1C)CO[C@@H]1O[C@H](CO)[C@@H](O)[C@H](O)[C@H]1O` [timosaponin B II], the “quantitative detection in sera” value is given as “detected”.

For `O=c1cc(-c2ccc(O)cc2)oc2c([C@@H]3O[C@H](CO)[C@@H](O)[C@H](O)[C@H]3O)c(O)cc(O)c12` [vitexin], the “quantitative detection in sera” value is listed as “detected”.

As to anemarrhensaponin I, the “quantitative detection in sera” value is on record as “detected”.

The values are drawn from publication PMC9253268 (Frontiers in Immunology, 2022).
